Laboratory results taken from patent publication US9481654B2, “Compositions and methods for inhibition of the JAK pathway” (Rigel Pharmaceuticals, Inc., priority 2006, dated 2016).

How the values were obtained:
Type in all cases: cell-based
[1] = tested on: IFNγ induced ICAM-1 (CD54) up-regulation in U937 human monocytic cells (JAK/Stat pathway); experiment: U937 IFNγ ICAM1 FACS Assay; conditions: Table III Example 6; 10 ng/mL IFNγ, 18-24 hours
From the text: A549 lung epithelial cells and U937 cells up-regulate ICAM-1 (CD54) surface expression in response to a variety of different stimuli. Therefore, using ICAM-1 expression as readout, test compound effects on different signaling pathways can be assessed in the same cell type. Stimulation with IL-1β through the IL-1β receptor activates the TRAF6/NFκB pathway resulting in up-regulation of ICAM-1. IFNγ induces ICAM-1 up-regulation through activation of the JAK1/JAK2 pathway. The up-regulation of ICAM-1 can be quantified by flow cytometry across a compound dose curve and EC50 values are calculated. Exemplary assays of this type are described in greater detail in Examples 5 and 6. U937 human monocytic cells up-regulate ICAM-1 (CD54) surface expression in response to a variety of different stimuli. Therefore, using ICAM-1 expression as readout, compound effects on different signaling pathways can be assessed in the same cell type. IFNγ up-regulates ICAM-1 through activation of the JAK/Stat pathway. In this example, the up-regulation of ICAM-1 by IFNγ was assessed. […] The cells were then plated at a concentration of 100,000 cells per 160 μL in 96 well flat bottom plates. The test compounds were then diluted as follows: 10 mM test compound was diluted 1:5 in DMSO (3 μL 10 mM test compound in 12 μL DMSO), followed by a 1:3 serial dilution of test compound in DMSO (6 μL test compound serially diluted into 12 μL DMSO to give 3-fold dilutions). […] For control wells, 4 μL of DMSO was diluted into 76 μL 10% RPMI. […] The cells and compounds were then pre-incubated for 30 minutes at 37° C. with 5% CO2. […] The cells were kept under conditions for stimulation for 18-24 hours at 37° C. with 5% CO2. […] Cells were spun down at 1000 rpm for 5 minutes at 4° C., following which the supernatant was removed. […] The cells were then incubated on ice in the dark for 30 minutes. […] After suspension, the cells were centrifuged at 1000 rpm for 5 min at 4° C. […] Detection was performed using a BD LSR I System Flow Cytometer, purchased from BD Biosciences of San Jose, Calif. The live cells were gated for live scatter and the geometric mean of ICAM-APC was measured (Becton-Dickinson CellQuest software version 3.3, Franklin Lakes, N.J.). Both % live cells and ICAM-1 expression was analyzed. The assays for the test compounds were carried out in parallel with a control compound of known activity.

[2] = tested on: primary human T-cells (IL-2 induced proliferation, JAK-1/JAK-3, Stat-5); experiment: Primary Human T-Cell Proliferation Assay Stimulated with IL-2 (CellTiter-Glo); conditions: Table III Example 4
Method in brief: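 Pre-activated peripheral-blood T-cells (TCR/CD28 stimulated, IL-2-maintained) were IL-2-depleted, then plated in Yssel's medium with 80 U/mL IL-2 in the cell suspension and compound in duplicate. Proliferation ran 72 h at 37 °C; viable cells quantified by CellTiter-Glo ATP luminescence, with IL-2-omitted wells as unstimulated control.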

[3] = tested on: IL-4 stimulated CD23 upregulation in human Ramos B cells (JAK-1/JAK-3, Stat-6); experiment: Assay for Ramos B-Cell Line Stimulated with IL-4 (CD23 upregulation, FACS); conditions: Table III Example 3
Method in brief: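 Log-phase Ramos B cells (5×10^4 per point, RPMI with 5% serum) pre-incubated with compound or DMSO 1 h at 37° C, then stimulated with IL-4 at 50 units/mL final for 20-24 h. CD23 upregulation measured by staining and flow cytometry.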

Cc1ccc(Nc2ncc(F)c(Nc3ccc(CNS(=O)(=O)c4sc(N)nc4C)cc3)n2)cc1S(N)(=O)=O [Compound I-43, N4-[4-(2-amino-4-methylthiazol-5-yl)sulfonylaminomethyl]phenyl-N2-(3-aminosulfonyl-4-methyl)phenyl-5-fluoro-2,4-pyrimidinediamine]
IC50 [1]: 37800 nM | IC50 [2]: 1790 nM | IC50 [3]: 537 nM

Cc1cnc(Nc2ccc(S(N)(=O)=O)cc2)nc1Nc1ccc(CNS(=O)(=O)C2CC2)cc1 [Compound I-45, N2-(4-aminosulfonyl)phenyl-N4-(4-cyclopropylsulfonylaminomethyl)phenyl-5-methyl-2,4-pyrimidinediamine]
IC50 [1]: 284 nM | IC50 [2]: 29.3 nM | IC50 [3]: 59.8 nM

Cc1cnc(Nc2cccc(S(N)(=O)=O)c2)nc1Nc1ccc(CNS(=O)(=O)C2CC2)cc1 [Compound I-46, N2-(3-aminosulfonyl)phenyl-N4-(4-cyclopropylsulfonylaminomethyl)phenyl-5-methyl-2,4-pyrimidinediamine]
IC50 [1]: 188 nM | IC50 [2]: 24.9 nM | IC50 [3]: 26.8 nM

Cc1cnc(Nc2ccc(S(N)(=O)=O)cc2)nc1Nc1ccc(CCNS(=O)(=O)C2CC2)cc1 [Compound I-53, N2-(4-aminosulfonyl)phenyl-N4-[4-(2-cyclopropylsulfonylamino)ethyl]phenyl-5-methyl-2,4-pyrimidinediamine]
IC50 [1]: 604 nM | IC50 [2]: 175 nM | IC50 [3]: 131 nM

Cc1cnc(Nc2ccc(S(N)(=O)=O)cc2)nc1Nc1cccc(CNS(=O)(=O)C2CC2)c1 [Compound I-56, N2-(4-aminosulfonyl)phenyl-N4-(3-cyclopropylsulfonylaminomethyl)phenyl-5-methyl-2,4-pyrimidinediamine]
IC50 [1]: 726 nM | IC50 [2]: 310 nM | IC50 [3]: 162 nM

CC(C)S(=O)(=O)NCc1ccc(Nc2nc(Nc3cccc(S(N)(=O)=O)c3)ncc2F)cc1 [Compound I-66, N2-(3-aminosulfonyl)phenyl-5-fluoro-N4-(4-isopropylsulfonylaminomethyl)phenyl-2,4-pyrimidinediamine]
IC50 [1]: 472 nM | IC50 [2]: 65 nM | IC50 [3]: 69.4 nM

CCS(=O)(=O)NCc1ccc(Nc2nc(Nc3cccc(S(N)(=O)=O)c3)ncc2F)cc1Cl [Compound I-75, N2-(3-aminosulfonyl)phenyl-N4-(3-chloro-4-ethylsulfonylaminomethyl)phenyl-5-fluoro-2,4-pyrimidinediamine]
IC50 [1]: 1200 nM | IC50 [2]: 246 nM | IC50 [3]: 181 nM

CCCN(Cc1ccc(Nc2nc(Nc3ccc(S(N)(=O)=O)cc3)ncc2C)cc1)S(=O)(=O)C1CC1 [Compound I-79, N2-(4-aminosulfonyl)phenyl-N4-[4-(N-cyclopropylsulfonyl-N-propylamino)methyl]phenyl-5-methyl-2,4-pyrimidinediamine]
IC50 [1]: 345 nM | IC50 [2]: 92.3 nM | IC50 [3]: 98 nM

CCCN(Cc1ccc(Nc2nc(Nc3ccc(C)c(S(N)(=O)=O)c3)ncc2C)cc1)S(=O)(=O)C1CC1 [Compound I-81, N2-(3-aminosulfonyl-4-methyl)phenyl-N4-[4-(N-cyclopropylsulfonyl-N-propylamino)methyl]phenyl-5-methyl-2,4-pyrimidinediamine]
IC50 [1]: 215 nM | IC50 [2]: 89.2 nM | IC50 [3]: 73.6 nM

CCC(=O)NS(=O)(=O)c1ccc(Nc2ncc(C)c(Nc3ccc(CNS(=O)(=O)C4CC4)cc3)n2)cc1 [Compound I-83, N4-(4-cyclopropylsulfonylaminomethyl)phenyl-5-methyl-N2-(4-propionylaminosulfonyl)phenyl-2,4-pyrimidinediamine]
IC50 [1]: 266 nM | IC50 [2]: 152 nM | IC50 [3]: 181 nM

Cc1ccc(Nc2ncc(F)c(Nc3ccc(CNS(=O)(=O)c4cccnc4)cc3)n2)cc1S(N)(=O)=O [Compound I-90, N2-(3-aminosulfonyl-4-methyl)phenyl-5-fluoro-N4-[4-(pyrid-3-yl)sulfonylaminomethyl]phenyl-2,4-pyrimidinediamine]
IC50 [1]: 2430 nM | IC50 [2]: 349 nM | IC50 [3]: 152 nM

NS(=O)(=O)c1cccc(Nc2ncc(F)c(Nc3ccc(CNS(=O)(=O)c4cccnc4)cc3)n2)c1 [Compound I-95, N2-(3-aminosulfonyl)phenyl-5-fluoro-N4-[4-(pyrid-3-yl)sulfonylaminomethyl]phenyl-2,4-pyrimidinediamine]
IC50 [1]: 2690 nM | IC50 [2]: 286 nM | IC50 [3]: 160 nM

Cc1cnc(Nc2ccc(S(N)(=O)=O)cc2)nc1Nc1ccc(CNS(=O)(=O)CC(F)(F)F)cc1 [Compound I-96, N2-(4-aminosulfonyl)phenyl-5-methyl-N4-(4-trifluoroethylsulfonylaminomethyl)phenyl-2,4-pyrimidinediamine]
IC50 [1]: 3670 nM | IC50 [2]: 105 nM | IC50 [3]: 74.4 nM

Cc1ccc(Nc2ncc(C)c(Nc3ccc(CNS(=O)(=O)CC(F)(F)F)cc3)n2)cc1S(N)(=O)=O [Compound I-98, N2-(3-aminosulfonyl-4-methyl)phenyl-5-methyl-N4-(4-trifluoroethylsulfonylaminomethyl)phenyl-2,4-pyrimidinediamine]
IC50 [1]: 152 nM | IC50 [2]: 52.1 nM | IC50 [3]: 25.3 nM

Cc1cnc(Nc2cccc(S(N)(=O)=O)c2)nc1Nc1ccc(CNS(=O)(=O)c2cccnc2)cc1 [Compound I-100, N2-(3-aminosulfonyl)phenyl-5-methyl-N4-[4-(pyrid-3-yl)sulfonylaminomethyl]phenyl-2,4-pyrimidinediamine]
IC50 [1]: 489 nM | IC50 [2]: 153 nM | IC50 [3]: 102 nM

Cc1ccc(Nc2ncc(C)c(Nc3ccc(CNS(=O)(=O)c4cccnc4)cc3)n2)cc1S(N)(=O)=O [Compound I-101, N2-(3-aminosulfonyl-4-methyl)phenyl-5-methyl-N4-[4-(pyrid-3-yl)sulfonylaminomethyl]phenyl-2,4-pyrimidinediamine]
IC50 [1]: 433 nM | IC50 [2]: 224 nM | IC50 [3]: 62.4 nM

Cc1ccc(Nc2ncc(C)c(Nc3cccc(CN(C)S(=O)(=O)C4CC4)c3)n2)cc1S(N)(=O)=O [Compound I-122, N2-(3-aminosulfonyl-4-methyl)phenyl-N4-[3-(N-cyclopropylsulfonyl-N-methyl)aminomethyl]phenyl-5-methyl-2,4-pyrimidinediamine]
IC50 [1]: 155 nM | IC50 [2]: 88.3 nM | IC50 [3]: 81.6 nM

Cc1cnc(Nc2ccc(S(N)(=O)=O)cc2)nc1Nc1ccc(CN(C)S(=O)(=O)C2CC2)cc1 [Compound I-127, N2-(4-aminosulfonyl)phenyl-N4-[4-(N-cyclopropylsulfonyl-N-methyl)aminomethyl]phenyl-5-methyl-2,4-pyrimidinediamine]
IC50 [1]: 616 nM | IC50 [2]: 233 nM | IC50 [3]: 126 nM

CCOC(=NS(=O)(=O)c1cccc(Nc2ncc(C)c(Nc3cccc(CNS(=O)(=O)C4CC4)c3)n2)c1)OCC [Compound I-128, N4-(3-cyclopropylsulfonylaminomethyl)phenyl-N2-[3-(diethoxy)carbonimidylsulfonyl]phenyl-5-methyl-2,4-pyrimidinediamine]
IC50 [1]: 707 nM | IC50 [2]: 62.2 nM | IC50 [3]: 157 nM

Cc1cnc(Nc2ccc(S(N)(=O)=O)cc2)nc1Nc1ccc(CNS(=O)(=O)C2CC2)c(Cl)c1 [Compound I-129, N2-(4-aminosulfonyl)phenyl-N4-(3-chloro-4-cyclopropylsulfonylaminomethyl)phenyl-5-methyl-2,4-pyrimidinediamine]
IC50 [1]: 2510 nM | IC50 [2]: 432 nM | IC50 [3]: 161 nM

Cc1cnc(Nc2cccc(S(=O)(=O)Nc3ccccc3)c2)nc1Nc1ccc(CNS(=O)(=O)C2CC2)cc1 [Compound I-150, N4-(4-cyclopropylsulfonylaminomethyl)phenyl-5-methyl-N2-(3-phenylaminosulfonyl)phenyl-2,4-pyrimidinediamine]
IC50 [1]: 565 nM | IC50 [2]: 127 nM | IC50 [3]: 88.6 nM
